US5614533A, “Substituted pipecolinic acid derivatives as HIV protease inhibitors” (Bio-Mega/Boehringer Ingelheim Research, Inc., priority 1994, dated 1997)
Each block holds one compound with its values, some of them ahead of it.

Assays:
HIV protease = target: T1, HIV protease (Human immunodeficiency virus type 1 group M subtype B, UniProt P04585); experiment: Recombinant HIV Protease HPLC Assay; assay type: biochemical; conditions: 37°, 30 min, pH 5.5
T1 construct: HIV protease was expressed in E. coli; made in house; host or cells: E. coli (plasmid pBRT1 prt+)
Method in brief: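 Recombinant protease from E. coli (pBRT1 prt+ construct), purified and diluted 1/38 for use, cleaves the decapeptide substrate VSFNFPQITL-NH2, containing an HIV polyprotein cleavage site. Inhibition of cleavage is monitored by HPLC.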

[1] = test system: HIV (H9/HTLV-IIIB) in C8166 cells; experiment: plaque assay: inhibition of syncytia formation in HIV-infected C8166 cells; assay type: cell-based; conditions: Human immunodeficiency virus 1, IIIB, 72 h, 50% inhibition of syncytia formation
Method in brief: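 C8166 cells (5×10^4/well) infected with 50× TCID50 H9/HTLV-IIIB in HEPES-buffered RPMI 1640 (pH 7.2), 10% FCS, with test compound in triplicate; 72 h at 37°, 5% CO2. Syncytia centers counted by phase-contrast microscopy; EC50 from percent inhibition versus serial dilutions by non-linear regression.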

IC50 (HIV protease; Table V): 2.8 nM
EC50 ([1]; Table V): 4 nM
Structure (SMILES): CC(C)[C@H](NC(=O)c1ccc2ccccc2n1)C(=O)N[C@@H](Cc1ccccc1)[C@H](O)CN1CC[C@@H](SCc2ccncc2)C[C@H]1C(=O)NC(C)(C)C [Table V, entry 2(S), N-tert-butyl-1-{2(R)-hydroxy-4-phenyl-3(S)-{{N-(2-quinolylinylcarbonyl)valyl}amino}butyl}-4(R)-{(4-pyridinylmethyl)thio}piperidine-2-carboxamide]

IC50 (HIV protease; Table VI): 3.7 nM
EC50 ([1]; Table VI): 13 nM
Structure (SMILES): CNC(=O)C[C@H](NC(=O)c1ccc2ccccc2n1)C(=O)N[C@@H](Cc1ccccc1)[C@H](O)CN1CC[C@@H](Oc2ccccc2)C[C@H]1C(=O)NC(C)(C)C [Table VI, entry 4, N-tert-butyl-1-{2(R)-hydroxy-4-phenyl-3(S)-{{N-(2-quinolylinylcarbonyl)(N^4-methyl)asparaginyl}amino}butyl}-4(R)-phenoxypiperidine-2(S)-carboxamide]

IC50 (HIV protease; Table V): 4 nM
EC50 ([1]; Table V): 20 nM
Structure (SMILES): Cc1cc(C)nc(O[C@@H]2CCN(C[C@@H](O)[C@H](Cc3ccccc3)NC(=O)[C@@H](NC(=O)c3ccc4ccccc4n3)C(C)C)[C@H](C(=O)NC(C)(C)C)C2)n1 [Table V, entry 11, N-tert-butyl-1-{2(S)(R)-hydroxy-4-phenyl-3(S)-{{N-(2-quinolylinylcarbonyl)valyl}amino}butyl}-4(R)-{(4,6-dimethyl-2-pyrimidinyl)oxy}piperidine-2-carboxamide]

IC50 (HIV protease; Table IV): 2.3 nM
EC50 ([1]; Table IV): 16 nM
Structure (SMILES): CC(C)[C@H](NC(=O)c1ccc2ccccc2c1)C(=O)N[C@@H](Cc1ccccc1)[C@H](O)CN1CC[C@@H](Sc2ccccc2)C[C@H]1C(=O)NC(C)(C)C [Table IV, entry 24, N-tert-butyl-1-{2(R)-hydroxy-4-phenyl-3(S)-{{N-(2-naphthalenylcarbonyl)valyl}amino}butyl}-4(R)-(phenylthio)piperidine-2(S)-carboxamide]

IC50 (HIV protease; Table VII): 2.7 nM
EC50 ([1]; Table VII): 35 nM
Structure (SMILES): Cc1cccc(C)c1OCC(=O)N[C@@H](Cc1ccccc1)[C@H](O)CN1CC[C@@H](SCc2cccnc2)C[C@H]1C(=O)NC(C)(C)C [Table VII, entry 1, N-tert-Butyl-1-{3(S)-{{(2,6-dimethylphenoxy)acetyl}amino}-2(R)-hydroxy-4-phenylbutyl}-4(R)-{(3-pyridinylmethyl)thio}piperidine-2(S)-carboxamide]

IC50 (HIV protease; Table IV): 4.1 nM
EC50 ([1]; Table IV): 40 nM
Structure (SMILES): CC(C)[C@H](NC(=O)OCc1ccccc1)C(=O)N[C@@H](Cc1ccccc1)[C@H](O)CN1CC[C@@H](Cc2ccccc2)C[C@H]1C(=O)NC(C)(C)C [Table IV, entry 13]

IC50 (HIV protease; Table V): 1.7 nM
EC50 ([1]; Table V): 13 nM
Structure (SMILES): CC(C)[C@H](NC(=O)c1ccc2ccccc2n1)C(=O)N[C@@H](Cc1ccccc1)[C@H](O)CN1CC[C@@H](S(=O)(=O)c2ccccn2)C[C@H]1C(=O)NC(C)(C)C [Table V, entry 20, N-tert-butyl-1-{2(S)(R)-hydroxy-4-phenyl-3(S)-{{N-(2-quinolylinylcarbonyl)valyl}amino}butyl}-4(R)-(2-pyridinylsulfonyl)piperidine-2-carboxamide]

IC50 (HIV protease; Table IV): 1.9 nM
EC50 ([1]; Table IV): 33 nM
Structure (SMILES): CC(C)(C)NC(=O)[C@@H]1C[C@H](Sc2ccccc2)CCN1C[C@@H](O)[C@H](Cc1ccccc1)NC(=O)[C@H](CC(N)=O)NC(=O)c1ccc2ccccc2c1 [Table IV, entry 25, N-tert-butyl-1-{2(R)-hydroxy-3(S)-{{N-(2-naphthalenylcarbonyl)asparaginyl}amino}-4-phenylbutyl}-4(R)-(phenylthio)piperidine-2(S)-carboxamide]

IC50 (HIV protease; Table VI): 2.1 nM
EC50 ([1]; Table VI): 60 nM
Structure (SMILES): CC(C)(C)NC(=O)[C@@H]1C[C@H](Sc2ncccn2)CCN1C[C@@H](O)[C@H](Cc1ccccc1)NC(=O)[C@H](CC(N)=O)NC(=O)c1ccc2ccccc2n1 [Table VI, entry 3, N-tert-butyl-1-{2(R)-hydroxy-4-phenyl-3(S)-{{N-(2-quinolylinylcarbonyl)asparaginyl}amino}butyl}-4(R)-(2-pyrimidinylthio)piperidine-2(S)-carboxamide]

IC50 (HIV protease; Table V): 4.6 nM
EC50 ([1]; Table V): 73 nM
Structure (SMILES): CC(C)[C@H](NC(=O)c1ccc2ccccc2n1)C(=O)N[C@@H](Cc1ccccc1)[C@H](O)CN1CC[C@@H](S(=O)(=O)Cc2ccncc2)C[C@H]1C(=O)NC(C)(C)C [Table V, entry 19, N-tert-butyl-1-{2(S)(R)-hydroxy-4-phenyl-3(S)-{{N-(2-quinolylinylcarbonyl)valyl}amino}butyl}-4(R)-{(4-pyridinylmethyl)sulfonyl}piperidine-2-carboxamide]

IC50 (HIV protease; Table IV): 2.3 nM
EC50 ([1]; Table IV): 40 nM
Structure (SMILES): CC(C)[C@H](NC(=O)OCc1ccccc1)C(=O)N[C@@H](Cc1ccccc1)[C@H](O)CN1CC[C@@H](S(=O)(=O)c2ccccc2)C[C@H]1C(=O)NC(C)(C)C [Table IV, entry 14]

IC50 (HIV protease; Table VII): 3.7 nM
EC50 ([1]; Table VII): 47 nM
Structure (SMILES): Cc1cc(C)c(OCC(=O)N[C@@H](Cc2ccccc2)[C@H](O)CN2CC[C@@H](Sc3ccncc3)C[C@H]2C(=O)NC(C)(C)C)c(C)c1 [Table VII, entry 2, N-tert-butyl-1-{3(S)-{{(2,4,6-trimethylphenoxy)acetyl}amino}-2(R)-hydroxy-4-phenylbutyl}-4(R)-(4-pyridinylthio)piperidine-2(S)-carboxamide]

IC50 (HIV protease; Table V): 1.9 nM
EC50 ([1]; Table V): 4 nM
Structure (SMILES): CC(C)[C@H](NC(=O)c1ccc2ccccc2n1)C(=O)N[C@@H](Cc1ccccc1)[C@H](O)CN1CC[C@@H](Sc2ccccn2)C[C@H]1C(=O)NC(C)(C)C [Table V, entry 6, N-tert-butyl-1-{2(S)(R)-hydroxy-4-phenyl-3(S)-{{N-(2-quinolylinylcarbonyl)valyl}amino}butyl}-4(R)-(2-pyridinylthio)piperidine-2-carboxamide]

IC50 (HIV protease; Table VI): 2.9 nM
EC50 ([1]; Table VI): 44 nM
Structure (SMILES): CC(C)(C)NC(=O)[C@@H]1C[C@H](S(=O)(=O)c2ccccn2)CCN1C[C@@H](O)[C@H](Cc1ccccc1)NC(=O)[C@@H](NC(=O)c1ccc2ccccc2n1)C(C)(C)C [Table VI, entry 8, N-tert-butyl-1-{2(R)-hydroxy-4-phenyl-3(S)-{{N-(2-quinolylinylcarbonyl)tert-butylglycyl}amino}butyl}-4(R)-(2-pyridinylsulfonyl)piperidine-2(S)-carboxamide]

IC50 (HIV protease; Table V): 2.4 nM
EC50 ([1]; Table V): 11 nM
Structure (SMILES): Cc1cc(S[C@@H]2CCN(C[C@@H](O)[C@H](Cc3ccccc3)NC(=O)[C@@H](NC(=O)c3ccc4ccccc4n3)C(C)C)[C@H](C(=O)NC(C)(C)C)C2)nc(C)n1 [Table V, entry 22, N-tert-butyl-1-{2(R)-hydroxy-4-phenyl-3(S)-{{N-(2-quinolylinylcarbonyl)valyl}amino}butyl}-4(R)-{(2,6-dimethyl-4-pyrimidinyl)thio}piperidine-2(S)-carboxamide]
